In brackets after ≈: the same amount, converted by molar mass. Activity calls are given as the source filed them. The rule behind the calls is not given here.
How the values were obtained:
[1] = system: Hepacivirus hominis; assay: Inhibition of HCV recombinant NS3 helicase at 100 uM
[2] = Inhibition of HCV recombinant NS3 helicase; design: species or system Hepacivirus hominis
[3] = Cytotoxicity against human Huh5-2 cells by MTS assay; format: cell-based, Huh-5-2
[4] = system: Hepatitis C virus; assay: Antiviral activity against HCV in human Huh5-2 cells assessed as inhibition of HCV subgenomic replication; format: functional, organism-based, Hepacivirus hominis; settings: Huh-5-2

Row | Compound | Activity [1] | IC50 [2] [nM] | CC50 [3] [µg/mL] | EC50 [4] [µg/mL]
1 | COC(=O)c1ccc(CNC(=O)c2cc(/C=C/C(C)=O)c[nH]2)cc1 | inactive |  |  | 
2 | COC(=O)c1ccc(CNC(=O)c2ccc(/C=C/C(C)=O)[nH]2)cc1 |  | 260 | 10 (≈ 30.6 µM) | 3 (≈ 9.19 µM)

Reference: ChEMBL document CHEMBL1136909, “Discovery of a novel HCV helicase inhibitor by a de novo drug design approach” (Bioorg Med Chem Lett, 2009)
